In publication PMC10301603, “Potent and Selective Benzothiazole-Based Antimitotics with Improved Water Solubility: Design, Synthesis, and Evaluation as Novel Anticancer Agents” (Pharmaceutics, 2023):
Converted amounts (≈) assume the structure as drawn.

Legend:
[1] = Aqueous solubility, shake-flask method; type: physicochemical; details: shaking flask, buffered media at pH 7.0, mean of three
How it was run: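 Shake-flask: 5 mg compound in 500 µL pH 7.0 buffer stirred 72 h at room temperature, then filtered to remove insoluble material. Saturated filtrate quantified by UV absorbance at λmax against a per-compound calibration line; value is the mean of three independent measurements.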

HepG2 cells = assay: Cell growth inhibition assay (MTT); type: cell-based, human
How it was run: (§1)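 24 h attachment at 37 °C/5% CO2 in complete DMEM; compounds 10^−10–10^−2 M, 72 h; MTT; IC50 fit, n=3 × triplicate. MDR sensitivity: same, + verapamil 10 µM final.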

LNCaP cells = assay: Cell growth inhibition assay (MTT); type: cell-based, human; details: 72 h after drug exposure
How it was run: as §1

MCF7 cells = assay: Cell growth inhibition assay (MTT); type: cell-based, human; details: for IC50: MTT, 72 h after drug exposure
How it was run: as §1

PC-3 cells = assay: Cell growth inhibition assay (MTT); type: cell-based, human
How it was run: (§2)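 Following overnight (24 h) attachment, cultures received serial compound concentrations from 10^−10 to 10^−2 M and were incubated 72 h before MTT viability measurement. Where efflux-pump sensitivity was tested, IC50 was redetermined with 10 µM verapamil present.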

T98G cells = assay: Cell growth inhibition assay (MTT); type: cell-based, human; details: 72 h after drug exposure
How it was run: as §2

U87MG cells [2] = assay: Cell growth inhibition assay (MTT); type: cell-based, human; details: for IC50: MTT, 72 h after drug exposure
How it was run: as §1

GL261 cells = assay: Cell growth inhibition assay (MTT); type: cell-based, murine
How it was run: as §1

HEK-293 cells [3] = assay: Cell growth inhibition assay (MTT), non-tumorigenic cells; type: cell-based, human; details: non-tumorigenic cell line
How it was run: as §1

U87MG cells [4] = assay: Cell cycle analysis (PI, flow cytometry); type: cell-based, human; details: for combined G2/M plus subG0/G1 populations: over the three time points (24, 48, 72 h)
Experimental: An amount of 8 × 10^4 cells/mL (HeLa, MCF7, or U87 MG cells) were seeded in 6-well plates (2 mL/well) and incubated in complete DMEM medium (see above) at 37 °C and 5% CO2 atmosphere for 24 h. Then, the medium was replaced with fresh complete DMEM in the presence or absence of the selected compounds (8, 9, and 14). The concentration of the compounds was selected according to their IC50 value for the antiproliferative activity in each cell line (see above, Section 2.4.4). […] Untreated cells were used as negative controls. Cells were harvested 24, 48, or 72 h following treatment and fixed in ice-cold ethanol/PBS (7:3) overnight. Cells were then washed twice with PBS, suspended in PBS, and incubated overnight in darkness with 0.2 mg/mL RNase A (Sigma-Aldrich, St. Louis, MO, USA), 50 µg/mL propidium iodide (Sigma-Aldrich, St. Louis, MO, USA), and Triton 10× at room temperature. BD Accuri™ C6 Plus Flow Cytometer (BD Biosciences) was used to analyze samples, and BD Accuri™ C6 Software (version 1.0.264.21) was used for data analysis.

HEK-293 cells [5] = assay: Lactate dehydrogenase (LDH) release assay; type: cell-based, human; details: HEK-293, 72 h; for LDH release: 100 µM
Experimental: CytoTox96® Non-Radioactive Cytotoxicity Assay kit (Promega, Madison, WI, USA) was used to measure the release of lactate dehydrogenase (LDH) by following the previously described method in [46]. […] After treatment, the supernatants were collected, and the intact attached cells were lysed using 0.1% (w/v) Triton X-100 in (0.9%) NaCl solution. Both the LDH released to culture media, as well as the LDH content within the cells, were determined spectrophotometrically at 490 nm on a 96-well plate reader (Infinite 200, Tecan, Salzburg, Austria) by following the manufacturer’s instructions. LDH release was defined by the ratio of LDH released/total LDH present in the cells, with the total LDH being 100%. All the samples were run in quadruplicate.

[6] = 24 h, 8 50 nM, 14 and 9 200 nM (Figure 6 legend; 100 nM in methods)

Compound: COc1ccc2nc(N(C=O)Cc3cccnc3)sc2c1 [Compound 14, N-(6-methoxybenzo[d]thiazol-2-yl)-N-(pyridin-3-ylmethyl)formamide]
- solubility at 72 h ([1]; pH 7.0 buffer, pH 7, aqueous buffer, thermodynamic from solid): 95 µg/mL (≈ 317 µM)
- IC50 (HepG2 cells; Homo sapiens, HepG2, 72 h after drug exposure): 83 nM
- IC50 (LNCaP cells; Homo sapiens, LNCaP): 93 nM
- selectivity index against MCF7 (MCF7 cells; HEK-293 versus MCF7): ~500
- IC50 (MCF7 cells; Homo sapiens, MCF7): 15 nM
- IC50 (PC-3 cells; Homo sapiens, PC-3, 72 h after drug exposure): 195 nM
- IC50 (T98G cells; Homo sapiens, T98G): 75 nM
- IC50 (U87MG cells [2]; Homo sapiens, U-87 MG): 37 nM
- IC50 (GL261 cells; Mus musculus, GL261, 72 h after drug exposure): 35 nM
- IC50 (HEK-293 cells [3]; Homo sapiens, HEK293, 72 h after drug exposure): 8220 nM
- combined G2/M plus subG0/G1 populations (U87MG cells [4]): roughly 75%
- LDH release (HEK-293 cells [5]): ~30%
- cytotoxic effect by LDH release (in words) (HEK-293 cells [5]; between 0.1 and 1 µM): No significant cytotoxic effects

Compound: CCNC(=O)N(Cc1cccnc1)c1nc2ccc(OC)cc2s1 [Compound 8]
- Solubility [1]: 102 µg/mL (≈ 298 µM)
- IC50 (HepG2 cells; 72 h after drug exposure): 94 nM
- IC50 (LNCaP cells): 88 nM
- IC50 (MCF7 cells): 34 nM
- IC50 (PC-3 cells; 72 h after drug exposure): 161 nM
- IC50 (T98G cells): 52 nM
- selectivity index against U87MG (U87MG cells [2]; HEK-293 versus U87MG): ~900
- IC50 (U87MG cells [2]): 9 nM
- IC50 (GL261 cells; 72 h after drug exposure): 25 nM
- IC50 (HEK-293 cells [3]; 72 h after drug exposure): 7970 nM
- G2/M population (U87MG cells [4]; [6]): 39%
- SubG0/G1 population (U87MG cells [4]; [6]): 41%
- combined G2/M plus subG0/G1 populations (U87MG cells [4]): ~85%
- LDH release (HEK-293 cells [5]): ~30%
